ChEMBL document CHEMBL1153449, “A new synthesis and an antiviral assessment of the 4'-fluoro derivative of 4'-deoxy-5'-noraristeromycin” (Bioorg Med Chem, 2009)
≈ marks a conversion by molar mass, not a printed value. Calls of active or inactive are those of the source. No cut-off for these calls is given here.

Assays:
[1] = tested on: Vaccinia virus; assay: Antiviral activity against Vaccinia virus; assay type: functional, organism-based; details: Orthopoxvirus vaccinia
[2] = tested on: Cytomegalovirus; assay: Antiviral activity against Cytomegalovirus; assay type: functional, organism-based
[3] = tested on: Measles morbillivirus; assay: Antiviral activity against Measles virus by neutral red assay; assay type: functional, organism-based
[4] = tested on: Measles morbillivirus; assay: Antiviral activity against Measles virus; assay type: functional, organism-based
[5] = Cytotoxicity against african green monkey CV1 cells; assay type: cell-based; details: Chlorocebus aethiops, CV-1
[6] = tested on: Cowpox virus; assay: Antiviral activity against Cowpox virus; assay type: functional, organism-based

SMILES: Nc1ncnc2c1ncn2[C@@H]1C[C@H](F)[C@@H](O)[C@H]1O
- Activity [1]: inactive
- Activity [2]: inactive
- IC50 [3]: 1.2 µg/mL (≈ 4.74 µM)
- IC50 [4]: 14 µg/mL (≈ 55.3 µM)
- IC50 [5]: 21 µg/mL (≈ 82.9 µM)
- Activity [6]: inactive

SMILES: Nc1ncnc2c1ncn2[C@@H]1CC(F)(F)[C@@H](O)[C@H]1O
- Activity [1]: Active
- Activity [2]: Active
- Activity [6]: Active
